Test system: 519858-162-T-J1-PDC complex spheroid growth, % test/control
Test: Anticancer human tumor 519858-162-T-J1-PDC patient-derived colon adenocarcinoma cell line growth inhibition [Asc]
Settings: for IC50: curve of first compound; for viability, T/C: stronger effect = lower value
Method in brief: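 Tumor cells were grown as multicellular spheroids with stromal HUVEC and mesenchymal stem cells and treated singly or in combination. Concentrations fell in half-log steps from the clinical Cmax, or from 10 microM where none was known.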

[1] = second compound 0.00949 µM, first compound 0.0316 µM
[2] = second compound 0.00949 µM, first compound 0.1 µM
[3] = second compound 0.00949 µM, first compound 0.316 µM
[4] = second compound 0.00949 µM, first compound 1 µM
[5] = second compound 0.00949 µM, first compound 3.16 µM
[6] = second compound 0.00949 µM, first compound 10 µM
[7] = second compound 0.03 µM, first compound 0.0316 µM
[8] = second compound 0.03 µM, first compound 0.1 µM
[9] = second compound 0.03 µM, first compound 0.316 µM
[10] = second compound 0.03 µM, first compound 1 µM
[11] = second compound 0.03 µM, first compound 3.16 µM
[12] = second compound 0.03 µM, first compound 10 µM
[13] = second compound 0.0949 µM, first compound 0.0316 µM
[14] = second compound 0.0949 µM, first compound 0.1 µM
[15] = second compound 0.0949 µM, first compound 0.316 µM
[16] = second compound 0.0949 µM, first compound 1 µM
[17] = second compound 0.0949 µM, first compound 3.16 µM
[18] = second compound 0.0949 µM, first compound 10 µM
[19] = second compound 0.3 µM, first compound 0.0316 µM
[20] = second compound 0.3 µM, first compound 0.1 µM
[21] = second compound 0.3 µM, first compound 0.316 µM
[22] = second compound 0.3 µM, first compound 1 µM
[23] = second compound 0.3 µM, first compound 3.16 µM
[24] = second compound 0.3 µM, first compound 10 µM
[25] = second compound 0.949 µM, first compound 0.0316 µM
[26] = second compound 0.949 µM, first compound 0.1 µM
[27] = second compound 0.949 µM, first compound 0.316 µM
[28] = second compound 0.949 µM, first compound 1 µM
[29] = second compound 0.949 µM, first compound 3.16 µM
[30] = second compound 0.949 µM, first compound 10 µM
[31] = second compound 3 µM, first compound 0.0316 µM
[32] = second compound 3 µM, first compound 0.1 µM
[33] = second compound 3 µM, first compound 0.316 µM
[34] = second compound 3 µM, first compound 1 µM
[35] = second compound 3 µM, first compound 3.16 µM
[36] = second compound 3 µM, first compound 10 µM
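Note: seven day drug exposure begun three days after spheroid seeding.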
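Throughout, for viability, T/C: 100% = DMSO vehicle wells and lower values mean less viable spheroid.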

With C#Cc1c(F)ccc2cc(O)cc(-c3ncc4c(N5CC6CCC(C5)N6)nc(OCC56CCCN5CC(F)C6)nc4c3F)c12 (stereo not drawn) + CCN1C(C(=O)NC23CCC(C(=O)O)(CC2)CC3)C(c2cccc(Cl)c2F)C2(C(=O)Nc3cc(Cl)ccc32)C12CCCCC2 the IC50 (second compound 0.00949 µM) was greater than 10 µM, the IC50 (second compound 0.03 µM) was greater than 10 µM and the IC50 (second compound 0.0949 µM) was greater than 10 µM. For the same compound, the IC50 (second compound 0.3 µM) was greater than 10 µM, the IC50 (second compound 0.949 µM) was greater than 10 µM and the IC50 (second compound 3 µM) was greater than 10 µM. It also gave a viability, T/C [1] of 75.2%, a viability, T/C [2] of 104% and a viability, T/C [3] of 84.3%. The viability, T/C [4] was 66.3%, the viability, T/C [5] was 82.3% and the viability, T/C [6] was 64%. The viability, T/C [7] was 67.5%, the viability, T/C [8] was 84.6% and the viability, T/C [9] was 96.4%. The viability, T/C [10] was 92.4%, the viability, T/C [11] was 94.3% and the viability, T/C [12] was 88.4%. The viability, T/C [13] was 89.6%, the viability, T/C [14] was 99.2% and the viability, T/C [15] was 88.4%. It also gave a viability, T/C [16] of 64.1%, a viability, T/C [17] of 81.4% and a viability, T/C [18] of 69%. For the same compound, the viability, T/C [19] was 59.4%, the viability, T/C [20] was 95.5% and the viability, T/C [21] was 78.4%. The viability, T/C [22] was 71.2%, the viability, T/C [23] was 74.2% and the viability, T/C [24] was 102%. The viability, T/C [25] was 53.3%, the viability, T/C [26] was 116% and the viability, T/C [27] was 81.3%. It also gave a viability, T/C [28] of 58.5%, a viability, T/C [29] of 86.6% and a viability, T/C [30] of 93.6%. It also gave a viability, T/C [31] of 64.2%, a viability, T/C [32] of 60.6% and a viability, T/C [33] of 63.3%. The viability, T/C [34] was 77.7%, the viability, T/C [35] was 93% and the viability, T/C [36] was 66.7%.

In the case of C=C(F)C(=O)N1CCN(c2nc(OCC3CCCN3C)nc3c2CCN(c2cccc4cccc(Cl)c24)C3)CC1CC#N (stereo not drawn) + CCN1C(C(=O)NC23CCC(C(=O)O)(CC2)CC3)C(c2cccc(Cl)c2F)C2(C(=O)Nc3cc(Cl)ccc32)C12CCCCC2, the IC50 (second compound 0.00949 µM) is reported as 7.46 µM, the IC50 (second compound 0.03 µM) is reported as greater than 10 µM and the IC50 (second compound 0.0949 µM) is reported as greater than 10 µM. It also gave an IC50 (second compound 0.3 µM) of 9.03 µM, an IC50 (second compound 0.949 µM) of 4.55 µM and an IC50 (second compound 3 µM) of 2.79 µM. It also gave a viability, T/C [1] of 114%, a viability, T/C [2] of 80.6% and a viability, T/C [3] of 84.5%. The viability, T/C [4] was 96.3%, the viability, T/C [5] was 71.7% and the viability, T/C [6] was 41.4%. It also gave a viability, T/C [7] of 102%, a viability, T/C [8] of 84% and a viability, T/C [9] of 78.4%. For the same compound, the viability, T/C [10] was 84.3%, the viability, T/C [11] was 71.9% and the viability, T/C [12] was 52.5%. For the same compound, the viability, T/C [13] was 126%, the viability, T/C [14] was 110% and the viability, T/C [15] was 76.2%. The viability, T/C [16] was 102%, the viability, T/C [17] was 84.7% and the viability, T/C [18] was 41.6%. For the same compound, the viability, T/C [19] was 81%, the viability, T/C [20] was 73.8% and the viability, T/C [21] was 97.7%. It also gave a viability, T/C [22] of 90.5%, a viability, T/C [23] of 79.7% and a viability, T/C [24] of 47.2%. It also gave a viability, T/C [25] of 95.5%, a viability, T/C [26] of 76.6% and a viability, T/C [27] of 96.7%. For the same compound, the viability, T/C [28] was 86.3%, the viability, T/C [29] was 58.1% and the viability, T/C [30] was 32.4%. It also gave a viability, T/C [31] of 74.7%, a viability, T/C [32] of 81% and a viability, T/C [33] of 82.7%. For the same compound, the viability, T/C [34] was 70%, the viability, T/C [35] was 47.8% and the viability, T/C [36] was 26.2%.

C=CC(=O)N1CCN(c2nc(=O)n(-c3c(C)ccnc3C(C)C)c3nc(-c4c(O)cccc4F)c(F)cc23)C(C)C1 (stereo not drawn) + CCN1C(C(=O)NC23CCC(C(=O)O)(CC2)CC3)C(c2cccc(Cl)c2F)C2(C(=O)Nc3cc(Cl)ccc32)C12CCCCC2 showed an IC50 (second compound 0.00949 µM) greater than 10 µM, an IC50 (second compound 0.03 µM) greater than 10 µM and an IC50 (second compound 0.0949 µM) greater than 10 µM. The IC50 (second compound 0.3 µM) was greater than 10 µM, the IC50 (second compound 0.949 µM) was greater than 10 µM and the IC50 (second compound 3 µM) was greater than 10 µM. It also gave a viability, T/C [1] of 147%, a viability, T/C [2] of 110% and a viability, T/C [3] of 97.8%. For the same compound, the viability, T/C [4] was 108%, the viability, T/C [5] was 99.4% and the viability, T/C [6] was 82%. It also gave a viability, T/C [7] of 112%, a viability, T/C [8] of 87.7% and a viability, T/C [9] of 115%. The viability, T/C [10] was 91.9%, the viability, T/C [11] was 75.2% and the viability, T/C [12] was 79.7%. The viability, T/C [13] was 92.7%, the viability, T/C [14] was 106% and the viability, T/C [15] was 85.3%. It also gave a viability, T/C [16] of 99.5%, a viability, T/C [17] of 89.6% and a viability, T/C [18] of 87.8%. The viability, T/C [19] was 88.7%, the viability, T/C [20] was 89.3% and the viability, T/C [21] was 112%. It also gave a viability, T/C [22] of 90%, a viability, T/C [23] of 106% and a viability, T/C [24] of 116%. It also gave a viability, T/C [25] of 114%, a viability, T/C [26] of 78.7% and a viability, T/C [27] of 111%. It also gave a viability, T/C [28] of 70.8%, a viability, T/C [29] of 86.1% and a viability, T/C [30] of 70%. It also gave a viability, T/C [31] of 86.9%, a viability, T/C [32] of 81.7% and a viability, T/C [33] of 87%. The viability, T/C [34] was 75.1%, the viability, T/C [35] was 74.9% and the viability, T/C [36] was 91.7%.

In the case of CNC(C)C(=O)NC1CN(S(=O)(=O)c2cccc(S(=O)(=O)N3CCC4CCC(C(=O)NC(c5ccccc5)c5ccccc5)N4C(=O)C(NC(=O)C(C)NC)C3)c2)CCC2CCC(C(=O)NC(c3ccccc3)c3ccccc3)N2C1=O (stereo not drawn) + CCN1C(C(=O)NC23CCC(C(=O)O)(CC2)CC3)C(c2cccc(Cl)c2F)C2(C(=O)Nc3cc(Cl)ccc32)C12CCCCC2, the IC50 (second compound 0.00949 µM) is reported as less than 0.00316 µM, the IC50 (second compound 0.03 µM) is reported as greater than 1 µM and the IC50 (second compound 0.0949 µM) is reported as greater than 1 µM. It also gave an IC50 (second compound 0.3 µM) greater than 1 µM, an IC50 (second compound 0.949 µM) greater than 1 µM and an IC50 (second compound 3 µM) greater than 1 µM. The viability, T/C (second compound 0.00949 µM, first compound 0.00316 µM) was 49.9%, the viability, T/C (second compound 0.00949 µM, first compound 0.01 µM) was 104% and the viability, T/C [1] was 91.5%. It also gave a viability, T/C [2] of 64.4%, a viability, T/C [3] of 98.7% and a viability, T/C [4] of 74.6%. It also gave a viability, T/C (second compound 0.03 µM, first compound 0.00316 µM) of 112%, a viability, T/C (second compound 0.03 µM, first compound 0.01 µM) of 89.9% and a viability, T/C [7] of 88.3%. It also gave a viability, T/C [8] of 79%, a viability, T/C [9] of 54.9% and a viability, T/C [10] of 99%. It also gave a viability, T/C (second compound 0.0949 µM, first compound 0.00316 µM) of 89.1%, a viability, T/C (second compound 0.0949 µM, first compound 0.01 µM) of 73.9% and a viability, T/C [13] of 85.1%. It also gave a viability, T/C [14] of 75.4%, a viability, T/C [15] of 60.4% and a viability, T/C [16] of 96.4%. For the same compound, the viability, T/C (second compound 0.3 µM, first compound 0.00316 µM) was 94.6%, the viability, T/C (second compound 0.3 µM, first compound 0.01 µM) was 75.3% and the viability, T/C [19] was 81.2%. The viability, T/C [20] was 68.2%, the viability, T/C [21] was 74.4% and the viability, T/C [22] was 58.2%. It also gave a viability, T/C (second compound 0.949 µM, first compound 0.00316 µM) of 94.3%, a viability, T/C (second compound 0.949 µM, first compound 0.01 µM) of 87.4% and a viability, T/C [25] of 85.7%. It also gave a viability, T/C [26] of 70.5%, a viability, T/C [27] of 68.2% and a viability, T/C [28] of 66%. The viability, T/C (second compound 3 µM, first compound 0.00316 µM) was 62%, the viability, T/C (second compound 3 µM, first compound 0.01 µM) was 76.1% and the viability, T/C [31] was 72.4%. It also gave a viability, T/C [32] of 93.9%, a viability, T/C [33] of 73.2% and a viability, T/C [34] of 74%.
